We go through twelve compounds from PubChem BioAssay (NCI).

Molecules are shown by their SMILES.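 Test compounds were applied to cells in 96-well plates for 48 hours at 5 doses. Here, GI50 denotes the concentration required for 50% inhibition of growth. TGI is the concentration that stops growth completely.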

Some test systems named below: SNB-19 CNS; MALME-3M melanoma; M14 melanoma; M19-MEL melanoma; HCT-116 colon; LXFL 529 NSCLC; UACC-257 melanoma; SK-MEL-5 melanoma; LOX IMVI melanoma; HS 578T breast.
Experiment in all cases: NCI-60 cell line screen, 48 h

For `Cc1ccccc1C(C#N)/C(=N/NC(=O)C(=O)NN)C(=O)Nc1cccc(C(F)(F)F)c1` (configuration not stated), the TGI with SNB-19 CNS, with MALME-3M melanoma, with M14 melanoma, with M19-MEL melanoma, in the assay on HCT-116 colon and in the assay on LXFL 529 NSCLC was greater than 100 µM each time. Further, the TGI in the assay on UACC-257 melanoma and with SK-MEL-5 melanoma was greater than 100 µM throughout.

For `O=S(=O)(c1ccccc1)C1CN(Cc2ccccc2)CCN(Cc2ccccc2)C1`, the TGI in the assay with SNB-19 CNS was greater than 100 µM; with LOX IMVI melanoma, greater than 61.5 µM; with MALME-3M melanoma, greater than 86.3 µM; in the assay on M14 melanoma it was greater than 100 µM; with M19-MEL melanoma it was greater than 100 µM; in the assay with HCT-116 colon, greater than 100 µM. The TGI with LXFL 529 NSCLC is greater than 100 µM; in the assay with UACC-257 melanoma it was greater than 100 µM; with HS 578T breast, greater than 100 µM; with SK-MEL-5 melanoma it was 59.3 µM.

For the compound `COC1(C)Cc2c(c(C)c(O)c3c2C(=O)C=C(Cl)C3=O)O1` (configuration not stated), the TGI with SNB-19 CNS is greater than 100 µM; with LOX IMVI melanoma, greater than 100 µM; in the assay with MALME-3M melanoma, 19.7 µM; with M14 melanoma, 56.5 µM; in the assay with M19-MEL melanoma, 38.9 µM; with HCT-116 colon, greater than 78 µM. The TGI is 28.9 µM with LXFL 529 NSCLC, greater than 69.5 µM in the assay with UACC-257 melanoma, greater than 100 µM in the assay on HS 578T breast and greater than 100 µM in the assay with SK-MEL-5 melanoma.

`O=C(Cc1nc2ccccc2s1)NC12CC3CC(CC(C3)C1)C2`: the TGI with SNB-19 CNS, with LOX IMVI melanoma, in the assay with MALME-3M melanoma, with M14 melanoma, in the assay on M19-MEL melanoma and in the assay with HCT-116 colon was greater than 100 µM each time. Also, the TGI in the assay on LXFL 529 NSCLC and in the assay with UACC-257 melanoma was greater than 100 µM throughout.

For the compound `N#Cc1ccccc1/C=N/O`, the TGI in the assay with SNB-19 CNS was greater than 100 µM; with LOX IMVI melanoma it was greater than 100 µM; in the assay with MALME-3M melanoma it was greater than 100 µM; in the assay with M14 melanoma, greater than 100 µM; in the assay with M19-MEL melanoma, greater than 100 µM; in the assay on HCT-116 colon, greater than 61.6 µM. The TGI in the assay on LXFL 529 NSCLC, with UACC-257 melanoma and with SK-MEL-5 melanoma was greater than 100 µM in each case.

Take `O=[N+]([O-])c1ccc(C2N3CCCCC3[C@@H]3c4[nH]c5ccccc5c4CCN23)cc1` (some centres not stated): the TGI was 67.1 µM in the assay on SNB-19 CNS; 38.9 µM in the assay on M14 melanoma; 24.4 µM in the assay on M19-MEL melanoma; 19.7 µM with HCT-116 colon; greater than 100 µM with LXFL 529 NSCLC; 41.2 µM with UACC-257 melanoma. This compound yielded a TGI in the assay on SK-MEL-5 melanoma of 28.2 µM.

`COC(=O)C1CCc2nnc(-c3cccnc3)n21` (configuration not stated): the TGI in the assay on SNB-19 CNS, in the assay with MALME-3M melanoma, with M14 melanoma, in the assay with M19-MEL melanoma, in the assay with HCT-116 colon and in the assay on LXFL 529 NSCLC was greater than 100 µM each time. Moreover, the TGI with UACC-257 melanoma and in the assay with SK-MEL-5 melanoma was greater than 100 µM in each case.

As for `CC(=O)/C=C/c1ccc(N(C)Cc2ccc(C(C)(C)C)cc2)cc1`, the GI50 in the assay with SNB-19 CNS is 218 µM; in the assay with LOX IMVI melanoma it was 78.2 µM; in the assay on MALME-3M melanoma, 138 µM; with M14 melanoma, 132 µM; in the assay with HCT-116 colon it was 80.6 µM; in the assay on UACC-257 melanoma, 143 µM. The GI50 with HS 578T breast is 193 µM; in the assay on SK-MEL-5 melanoma, 55.1 µM. The TGI in the assay with SNB-19 CNS turned out to be 699 µM; with LOX IMVI melanoma, 208 µM; in the assay with MALME-3M melanoma, 284 µM; with M14 melanoma, 321 µM; with HCT-116 colon it was 290 µM; in the assay with UACC-257 melanoma, 335 µM. In addition, the TGI was found to be 568 µM in the assay on HS 578T breast and 184 µM with SK-MEL-5 melanoma.

Consider `CCN(CC)CCCC(C)Nc1ccnc2cc(Cl)c(SCc3ccccc3)cc12` (configuration not stated), for which the GI50 in the assay with SNB-19 CNS was 1.78 µM; with LOX IMVI melanoma it was 0.199 µM; with MALME-3M melanoma, 1.71 µM; with M14 melanoma, 0.189 µM; with HCT-116 colon, 0.516 µM; in the assay with UACC-257 melanoma, 0.781 µM. The GI50 with HS 578T breast is 1.97 µM; in the assay with SK-MEL-5 melanoma, 1.31 µM. Besides, the TGI with SNB-19 CNS is 4.41 µM; in the assay on LOX IMVI melanoma it was 0.552 µM; in the assay on MALME-3M melanoma it was 3.68 µM; in the assay on M14 melanoma it was 0.351 µM; in the assay on HCT-116 colon it was 1.73 µM; in the assay with UACC-257 melanoma, 2.11 µM. In addition, the TGI with HS 578T breast is 5.73 µM; with SK-MEL-5 melanoma it was 2.58 µM.

For the compound `O=c1nc2[nH]nc(-c3ccccc3)c2n[nH]1`, the TGI with SNB-19 CNS, with LOX IMVI melanoma, with M14 melanoma, in the assay with HCT-116 colon, in the assay on LXFL 529 NSCLC and in the assay with UACC-257 melanoma was greater than 100 µM each time.

With `CSc1ccc2c(c1)C(=O)c1c-2n(CCCN=[N+]=[N-])c(=O)c2cc([N+](=O)[O-])ccc12`, the GI50 in the assay on SNB-19 CNS was 1.18 µM; in the assay on LOX IMVI melanoma it was 1.22 µM; in the assay on M14 melanoma, 1.29 µM; with HCT-116 colon, 1.69 µM; in the assay with UACC-257 melanoma it was 39.9 µM; with HS 578T breast, greater than 61.1 µM. The GI50 in the assay with SK-MEL-5 melanoma is 2.56 µM. Also, the TGI with SNB-19 CNS is greater than 100 µM; in the assay on LOX IMVI melanoma, greater than 100 µM; with MALME-3M melanoma it was greater than 38.9 µM; in the assay with M14 melanoma, greater than 100 µM; with HCT-116 colon it was greater than 100 µM; in the assay on UACC-257 melanoma, greater than 100 µM. In addition, the figures for the TGI in the assay on HS 578T breast and in the assay on SK-MEL-5 melanoma were greater than 100 µM and 16.4 µM, respectively.

In the case of `CC(C)(C)C1CCN(C(=O)c2ccccc2)CC1`, the TGI with SNB-19 CNS, in the assay on LOX IMVI melanoma, in the assay with MALME-3M melanoma, with M14 melanoma, in the assay on M19-MEL melanoma and in the assay on HCT-116 colon was greater than 100 µM in each case. The TGI with LXFL 529 NSCLC, in the assay on UACC-257 melanoma and with SK-MEL-5 melanoma was greater than 100 µM each time.
